The values below come from publication PMC6277434, “Discovery of a potent HMG-CoA reductase degrader that eliminates statin-induced reductase accumulation and lowers cholesterol” (Nature Communications, 2018).

Several values for one entry are separate records, joined by “and”; a condition that tells them apart may be missing. Equal values may be shown once.

Assay [1] addresses T1, HMGCR (TM1-8)-GFP (Cricetulus griseus, UniProt P00347).
T1 sequence (P00347 1-346): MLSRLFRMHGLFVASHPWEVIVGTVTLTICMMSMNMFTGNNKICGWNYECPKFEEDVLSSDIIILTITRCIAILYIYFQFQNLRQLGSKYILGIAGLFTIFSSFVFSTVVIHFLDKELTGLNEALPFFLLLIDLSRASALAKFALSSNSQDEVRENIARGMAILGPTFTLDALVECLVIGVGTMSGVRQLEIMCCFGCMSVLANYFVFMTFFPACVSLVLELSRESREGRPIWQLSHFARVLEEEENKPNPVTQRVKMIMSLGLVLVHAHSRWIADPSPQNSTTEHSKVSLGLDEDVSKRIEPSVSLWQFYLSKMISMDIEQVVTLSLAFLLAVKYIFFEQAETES
The assay is described as follows: HMGCR (TM1-8)-GFP fluorescent assay (high-content imaging) in CHG cells. The conditions noted are these: for Mean (HMGCR (TM1-8)-GFP signal relative to 0 μM = 100): Figure 4 source data.

The test system of assay [2] is Hmgcr mRNA. Kind of assay: RT-qPCR of hepatic Hmgcr mRNA of gavaged mice. It counts as in vivo. To be noted: C57BL/6J mice, 60 mg/kg/day gavage once daily 7 days. The protocol:
Cells were treated as described in corresponding figure legends, then total RNA was extracted from cells or mouse livers using TRI Reagent ([…], Sigma-Aldrich). Equal amounts of RNA from cells or mice receiving the same treatment were pooled were used for cDNA synthesis with oligo dT and reverse transcriptase MLV (Promega). Gene expression was analyzed by quantitative real-time PCR on a Stratagene […] Systems. The primers used were listed in Supplementary Tables 2-4. Male C57BL/6 mice (8-week-old) were obtained from Shanghai Laboratory Animal Company (SLAC) (Shanghai, China). Male Ldlr^-/- mice (8-week-old) were obtained from Nanjing Biomedical Research Institute of Nanjing University (Nanjing, China). […] Mice were maintained in a pathogen-free environment and kept on a 12-h light/dark schedule. Mice were gavaged as described in figure legends with saline containing 0.5% methyl cellulose and 0.5% Tween-80. All mice were used in accordance with the guidelines approved by the Institutional Animal Care and Use Committee of Wuhan University.

On to `C=CCC(O)(CC=C)CCCC(C)C1CCC2C3C(O)C=C4C(C)(C)C(O)CCC4(C)C3CCC12C` (stereo not drawn) [Cmpd 81], for which the “Mean (HMGCR (TM1-8)-GFP signal relative to 0 μM = 100)” value in assay [1] (compound 0.156 μM) worked out at 80.6979; in assay [1] (compound 0.313 μM) it was 58.3802; in assay [1] (compound 0.625 μM), 35.2515; in assay [1] (compound 1.25 μM) it was 17.0524; in assay [1] (compound 2.5 μM), 14.0516; in assay [1] (compound 5 μM), 2.6212. In addition, the “Mean (HMGCR (TM1-8)-GFP signal relative to 0 μM = 100)” value in assay [1] (compound 10 μM) is 2.9162. In addition, the “potency (EC50) relative to 24,25-DHL” value in assay [1] (more potent than 24,25-DHL) was about 4 fold. Further, the “potency (EC50) relative to cholesterol” value in assay [1] (more potent than cholesterol) is reported as “approximately 74 fold”.

On to `CC[C@H](C)C(=O)O[C@H]1C[C@@H](C)C=C2C=C[C@H](C)[C@H](CC[C@@H]3C[C@@H](O)CC(=O)O3)[C@H]21` [Lovastatin, lovastatin], for which the “hepatic Hmgcr mRNA level, mean” value in assay [2] (vehicle = 1) is 2.5 ± 0.2 fold and 2.537 fold; in assay [2] (vehicle = 1, listed as lovastatin), 2.5 fold. Also, the “hepatic Hmgcr mRNA level, single values” in assay [2] (vehicle = 1) was 2.5 and 2.78 and 2.33.
